In patent US20220090023A1, “METHODS FOR REGULATING POTENCY OF PLURIPOTENT STEM CELLS AND APPLICATIONS THEREOF” (ACADEMIA SINICA, priority 2018, published 2022):
Like-named read-outs stand apart in the source and are kept apart here.

Experiments:
Assay type in all cases: cell-based, human
[1] = system: H9; experiment: IC50 analyses of three inhibitors of cell growth, H9
Method: (§1) For feeder-free experiments, cells were cultured in a chemically defined medium (Essential 8 medium).
(§2) hESCs were cultured with Essential 8 medium (Thermo Fisher, A1517001) which containing 15% Alamar blue at 37° C. for 5 hours. The activities were calculated by measuring absorbance at 570 nm and 600 nm. To count the cell numbers with trypan blue assay, cells were treated with trypsin and the suspended cells were mixed 0.2% trypan blue (1:1) and counted with a hemocytometer.
(§3) To check the functional roles of cholesterol on pluripotency, cholesterol inhibitor simvastatin, AY9944, Methyl-β-cyclodextrin (MBCD) were used to inhibit cholesterol biosynthesis (FIG. 4A). […] HMGCR is the rate-limiting enzyme of cholesterol biosynthesis. The side effects of statin are few and no cytotoxic side effects in human has been reported. AY9944 inhibits Δ7-dehydrocholesterol reductase (DHCR7), and decrease levels of cholesterol (Wassila Gaoua, 2000). Methyl-β-cyclodextrin (MBCD) directly deprived cellular cholesterol (Mahammad and Parmryd, 2015) (FIG. 4A). […] Next, we would like to know whether PSCs are more rely on cholesterol pathway. Thus, we compared the sensitivities of three cholesterol inhibitors in PSCs and three somatic fibroblast cells. […]

[2] = system: hNSC; experiment: IC50 analyses of three inhibitors of cell growth, hNSC; conditions: for IC50: hNSC, inhibitors for 3 days; for hPSCs more sensitive than human neural stem cells (hNSCs): hNSCs vs hPSCs
Method: (§4) Human BMMSCs (Lonza) were cultured in MSC NutriStem XF Medium (Defined, xeno-free, serum-free medium) and grown on Corning CellBIND Surface plates with inhibitor treatments for 3 days. Human neural stem cells (NSCs) were differentiated from H9 hESCs with Gibco PSC Neural Induction Medium (serum-free medium) for 7 days. And the NSCs were replated on matrigel-coated plate and supplied with each inhibitors for 3 days.
(§5) To check the functional roles of cholesterol on pluripotency, cholesterol inhibitor simvastatin, AY9944, Methyl-β-cyclodextrin (MBCD) were used to inhibit cholesterol biosynthesis (FIG. 4A). […] HMGCR is the rate-limiting enzyme of cholesterol biosynthesis. The side effects of statin are few and no cytotoxic side effects in human has been reported. AY9944 inhibits Δ7-dehydrocholesterol reductase (DHCR7), and decrease levels of cholesterol (Wassila Gaoua, 2000). Methyl-β-cyclodextrin (MBCD) directly deprived cellular cholesterol (Mahammad and Parmryd, 2015) (FIG. 4A). […] Next, we would like to know whether PSCs are more rely on cholesterol pathway. Thus, we compared the sensitivities of three cholesterol inhibitors in PSCs and three somatic fibroblast cells. Primary human foreskin fibroblasts (CRL-2097), a human foreskin fibroblast cell line (BJ-5Ta), and a fetal lung fibroblast cell line (IMR-90) were used for comparison.

[3] = system: HUES6 hESCs; experiment: Alkaline phosphatase activity after cholesterol inhibitor treatment; conditions: treatment for 3 days
Excerpt: as §5

[4] = system: hBMSC; experiment: IC50 analyses of three inhibitors of cell growth, hBMSC; conditions: for hPSCs more sensitive than human bone marrow mesenchymal stem cells (hBMMSCs): hBMMSCs vs hPSCs; for IC50: hBMSC, inhibitor treatments for 3 days
Method: as §4, §5

[5] = system: BJ-5Ta; experiment: IC50 analyses of three inhibitors of cell growth, BJ-5Ta
Excerpt: as §5

[6] = system: IMR-90; experiment: IC50 analyses of three inhibitors of cell growth, IMR-90
Excerpt: as §5

[7] = system: PODXL overexpressing hESCs; experiment: Inhibitor treatment of PODXL overexpressing hESCs (Alamar blue, ALP activity); conditions: PODXL overexpressed one day, then inhibitor treatment for 3 days
Method: as §2

[8] = system: HUES6; experiment: IC50 analyses of three inhibitors of cell growth, HUES6
Method: as §1, §2, §3

[9] = system: CRL-2097; experiment: IC50 analyses of three inhibitors of cell growth, CRL-2097; conditions: for IC50 higher in primary fibroblasts than HUES6: primary fibroblasts vs HUES6
Excerpt: as §5

[10] = system: PODXL downregulated HUES6 hESCs; experiment: Cholesterol rescue in PODXL knockdown hESCs (Alamar blue, ALP activity); conditions: cholesterol addition for 4 days
Method: (§6) FIGS. 5A-5B. Cholesterol addition rescue hESC renewal in PODXL knockdown cells. […] Quantification of Annexin V/PI-positive cells was executed in triplicates (bottom left panel). P-values were calculated by performing one-way ANOVA against the shRFP hESCs (*p<0.05, **p<0.01, ***p<0.001). (Bottom right panel) Cholesterol restores the c-MYC/TERT expressions decrease by the expression of shPODXL. Western Blots were executed in PODXL knockdown HUES6 hESCs with the addition of cholesterol for 4 days.
as §2
Alkaline phosphatase (ALP) activities were calculated by adding the substrate of ALP, p-nitrophenyl phosphate (pNPP) (N7653, sigma), in the culture medium. The plate were incubated at 37° C. less than 5 minutes, then the absorbance was measured at 405 nm. For Alkaline phosphatase (ALP) staining, hPSCs were first washed with PBS and used 4% formaldehyde as a fixative. After fixing for 3 minutes, the cells were washed with 1×PBS and were stained by ALP staining reagent (Sigma). Then the cells were further washed by PBS. […]

[11] = system: PODXL knockdown hESCs; experiment: Annexin V/PI apoptosis in PODXL knockdown hESCs with cholesterol; conditions: PODXL knockdown for six days
Method: as §6
hESCs were dissociated by accutase. The cells were stained according to manufactures' instructions (eBioscience, 88-8005-72). In brief, cells (5×10^5) were suspended at in 100 μl 1× binding buffer, and then stained with 2.5 μl of Annexin V-FITC. After reaction for 20 min at room temperature, the cells were incubated with 2.5 μl of PI solution for 10 min. Then the cells were diluted with PBS and analyzed with a flow cytometer.
To examine if cholesterol is the major downstream of PODXL, rescue experiment with cholesterol was performed.

[12] = system: c-MYC, TERT, HMGCR, PODXL, TRA-1-60; experiment: Western blot in PODXL knockdown hESCs with cholesterol; conditions: PODXL downregulated cells, cholesterol for 4 days
Method: as §6
Whole-cell protein extracts were purified from hPSCs or using RIPA lysis buffer (1% NP40, 50 mM Tris, pH 8.0, 150 mM NaCl, 2 mM EDTA) with the presence of protease inhibitor cocktail (Roche, 04693132001). Protein concentration was quantified by Bio-Rad Bradford Protein Assay. Equal amounts of protein were subjected to a 10% SDS-PAGE gel and blotted onto 0.22 um PVDF membrane (Millipore, ISEQ00010). Blots were blocked in 5% BSA/TBST at room temperature for 1 hr. The blots were incubated with the primary antibodies in 5% BSA/TBST at 4° C. overnight. […]

[13] = system: CRL2097; experiment: iPSC reprogramming efficiency with cholesterol (alkaline phosphatase assay); conditions: with OSKM 4 factors
Method: FIG. 6. The addition of cholesterol promote the iPSCs reprogramming efficiency. CRL2097 (passage 9) were seeded and infected with lentivirual vector (OSKM) with final concentration of cholesterol (0, 0.5×, 1×, 2×, 5×, 8×) which was diluted from 500× concentrated SyntheChol® NSO Supplement (S5442, Sigma). Alkaline phosphatase assay was performed to assay the reprogramming efficiency.
CRL2097 (passage 9) were seeded and infected with lentivirual vector (OSKM) with final concentration of cholesterol (0, 0.5×, 1×, 2×, 5×, 8×) which was diluted from 500× concentrated SyntheChol® NSO Supplement (S5442, Sigma). After 4 days viral transduction, cell were replated on matrigel-coated 6-well plates as cell number 27, 000 per well. 2 days later for cell attachment, cholesterol were supplied continually during reprogramming procedure. To better evaluate cholesterol effect to iPSC generation, serum-free defined E8 medium (containing 250 μM sodium butyrate, 50 μg/ml Vitamin C) was used for iPSC generation.
In addition, cholesterol can boost the reprogramming efficiency (total AP positive, 7.62-fold) with OSKM 4 factors.

Methyl-β-cyclodextrin [MBCD]
IC50 [1]: 1130 µM
IC50 [2]: 3020 µM
hPSCs more sensitive than human neural stem cells (hNSCs) [2]: 2.44 fold
Alkaline phosphatase activities (stem cell marker expression) [3]: hampered
hPSCs more sensitive than human bone marrow mesenchymal stem cells (hBMMSCs) [4]: 2.65 fold
IC50 [4]: 3290 µM
IC50 ([5]; no serum): 2340 µM
IC50 ([5]; serum): 3770 µM
IC50 ([6]; IMR-90, no serum): 2640 µM
IC50 ([6]; IMR-90, serum): 2810 µM
upregulation in self-renewal (cell growth and ALP activity) by PODXL overexpression [7]: inhibited
IC50 [8]: 1350 µM
IC50 ([9]; CRL-2097, no serum): 2600 µM
IC50 ([9]; CRL-2097, serum): 3860 µM
IC50 higher in primary fibroblasts than HUES6 [9]: 2 fold

CC(C)CCC[C@@H](C)[C@H]1CC[C@H]2[C@@H]3CC=C4C[C@@H](O)CC[C@]4(C)[C@H]3CC[C@]12C [cholesterol]
relative cell number loss from PODXL knockdown ([10]; Alamar blue): prevent
reduction in ALP activity from PODXL knockdown [10]: prevent
apoptosis of the hPSCs [11]: substantially restored
expression levels of c-MYC, TERT, HMGCR, PODXL, TRA-1-60 [12]: rescued
reprogramming efficiency (total AP positive) [13]: 7.62 fold

CCC(C)(C)C(=O)O[C@H]1C[C@@H](C)C=C2C=C[C@H](C)[C@H](CC[C@@H]3C[C@@H](O)CC(=O)O3)[C@H]21 [Simvastatin, (1S,3R,7S,8S,8aR)-1,2,3,7,8,8a-Hexahydro-3,7-dimethyl-8-[2-[(2R,4R)-tetrahydro-4-hydroxy-6-oxo-2H-pyran-2-yl]ethyl]-1-naphthalenyly-2,2-dimethyl butanoate]
IC50 ([1]; Homo sapiens): 0.02 µM
IC50 ([2]; Homo sapiens, 72 h): 31.2 µM
hPSCs more sensitive than human neural stem cells (hNSCs) [2]: 568 fold
IC50 ([4]; Homo sapiens, 72 h): 8.97 µM
hPSCs more sensitive than human bone marrow mesenchymal stem cells (hBMMSCs) [4]: 163 fold
IC50 ([5]; Homo sapiens, no serum): 1.96 µM
IC50 ([5]; Homo sapiens, serum): 4.36 µM
IC50 ([6]; Homo sapiens, IMR-90, IMR-90, no serum): 5.46 µM
IC50 ([6]; Homo sapiens, IMR-90, IMR-90, serum): 4.13 µM
IC50 ([8]; Homo sapiens): 0.16 µM
IC50 ([9]; Homo sapiens, CRL-2097, no serum): 4.35 µM
IC50 ([9]; Homo sapiens, CRL-2097, serum): 5.44 µM
IC50 higher in primary fibroblasts than HUES6 [9]: 52 fold
